Measurements reported in patent publication US10934295B2, “Antimicrobials and methods of making and using same” (BIOVERSYS AG, priority 2016, dated 2021).

Assays:
E. coli strain ATCC25922 = experiment: standard microdilution assay, minimum inhibitory concentration (MIC); assay type: cell-based; settings: Escherichia coli
Description: (§1) The in vitro activity of the compounds of the present disclosure can be determined. Antimicrobial testing is typically performed to determine the minimum inhibitory concentration (MIC). Minimum inhibitory concentrations (MICs) are determined by the microdilution method in a final volume of 100 μl according to protocols outlined by The Clinical and Laboratory Standards Institute (CLSI). Performance standards for reference strains are assessed within the same experimental design to maintain quality control. See, for example, Clinical Laboratory Standards Institute: Methods for dilution antimicrobial susceptibility tests for bacteria that grow aerobically M7-A8. Approved Standard-Eighth Edition. Wayne, Pa.: CLSI; December 2008; and Clinical Laboratory Standards Institute: Performance Standards for Antimicrobial Susceptibility Testing M100-S20; Approved Standard-Twentieth Edition. Wayne, Pa.: CLSI; June 2010. The compounds of the present disclosure were tested for antimicrobial activity. The Compounds 1-32 were run against Eschericia colt (E. coli) strain ATCC25922 and against Staphylococcus aureus (S. aureus) 11540 strain using a standard microdilution assay to determine minimum inhibitory concentrations (MICs). […] It will be recognized by one skilled in the art that the compounds can be assessed against other bacterial organisms and that the presentation of data for activity against Eschericia colt and Staphylococcus aureus are illustrative and in no way is intended to limit the scope of the present disclosure. The compounds of the present disclosure can be assayed against a range of other microorganisms depending upon the performance activity desired to be gathered. Furthermore, the “+” and “−” representation and the selection of a cutoff value of 16 micrograms/mL is also illustrative and in no way is intended to limit the scope of the present disclosure.

[1] = test system: Staphylococcus aureus (S. aureus) 11540 strain; experiment: as above; assay type: cell-based
Description: as §1

| Structure (SMILES) | MIC (E. coli strain ATCC25922) [µg/mL] | MIC [1] [µg/mL] |
| --- | --- | --- |
| CSc1cc(-n2cc3cc(-c4cc(CCC[C@H](C)N)cc(Cl)c4F)[nH]c3nc2=O)ccc1CO[C@H](CCNC(=N)N)CNC(=N)N [Compound 31] | ≤ 16 | ≤ 16 |
| C[C@H](N)CCCc1cc(Cl)c(F)c(-c2cc3cn(-c4ccc(CN[C@@H](C)CCNC(=N)N)c(N5CCOCC5)c4)c(=O)nc3[nH]2)c1 [Compound 16] | ≤ 16 | ≤ 16 |
| C[C@H](N)CCCc1cc(Cl)c(F)c(-c2cc3cn(-c4ccc([C@@H]5CNC[C@@H](CCNC(=N)N)O5)cc4)c(=O)nc3[nH]2)c1 [Compound 14] | ≤ 16 | ≤ 16 |
| COc1cc(-n2cc3cc(-c4cc(CCC[C@H](C)N)cc(Cl)c4F)[nH]c3nc2=O)ccc1CO[C@H](CCNC(=N)N)CNC(=N)N [Compound 32] | ≤ 16 | ≤ 16 |
| C[C@H](N)CCCc1cc(Cl)c(F)c(-c2cc3cn(-c4ccc(C(=O)N[C@@H](CO)CCNC(=N)N)cc4)c(=O)nc3[nH]2)c1 [Compound 10] | ≤ 16 | ≤ 16 |
| C[C@H](N)CCCc1cc(Cl)c(F)c(-c2cc3cn(-c4ccc([C@H]5CNC[C@H](CCNC(=N)N)N5)cc4)c(=O)nc3[nH]2)c1 [Compound 18] | ≤ 16 | ≤ 16 |
| C[C@H](N)CCCc1cc(Cl)c(F)c(-c2cc3cn(-c4ccc(C(=O)N[C@@H](C)CCNC(=N)N)cc4)c(=O)nc3[nH]2)c1 [Compound 9] | ≤ 16 | ≤ 16 |
| C[C@H](N)CCCc1cc(Cl)c(F)c(-c2cc3cn(-c4ccc(CN[C@@H](C)CCNC(=N)N)c([N+](=O)[O-])c4)c(=O)nc3[nH]2)c1 [Compound 8] | ≤ 16 | ≤ 16 |
| C[C@H](N)CCCc1cc(Cl)c(F)c(-c2cc3cn(-c4ccc(C(=O)N[C@H](CCNC(=N)N)CNC(=N)N)cc4)c(=O)nc3[nH]2)c1 [Compound 19] | ≤ 16 | ≤ 16 |
| C[C@H](N)CCCc1cc(Cl)c(F)c(-c2cc3cn(-c4ccc(C(=O)N[C@H](CCNC(=N)N)CNc5ccccn5)cc4)c(=O)nc3[nH]2)c1 [Compound 21] | ≤ 16 | ≤ 16 |
| C[C@H](N)CCCc1cc(Cl)c(F)c(-c2cc3cn(-c4ccc([C@@H]5CNC[C@H](CCNC(=N)N)N5)cc4)c(=O)nc3[nH]2)c1 [Compound 22] | ≤ 16 | ≤ 16 |
| C[C@H](N)CCCc1cc(Cl)c(F)c(-c2cc3cn(-c4ccc([C@H]5CNC[C@@H](CCNC(=N)N)N5)cc4)c(=O)nc3[nH]2)c1 [Compound 17] | ≤ 16 | ≤ 16 |
| C[C@H](N)CCCc1cc(Cl)c(F)c(-c2cc3cn(-c4ccc(N5CCNC(CCNC(=N)N)C5)cc4)c(=O)nc3[nH]2)c1 (stereo partly drawn) [Compound 7] | ≤ 16 | ≤ 16 |
| C[C@H](N)CCCc1cc(Cl)c(F)c(-c2cc3cn(-c4ccc([C@@H]5CNC[C@H](CCNC(=N)N)O5)cc4)c(=O)nc3[nH]2)c1 [Compound 5] | ≤ 16 | ≤ 16 |
| C[C@H](N)CCCc1cc(Cl)c(F)c(-c2cc3cn(-c4ccc(CN[C@@H](C)CCNC(=N)N)c(N(C)C)c4)c(=O)nc3[nH]2)c1 [Compound 11] | ≤ 16 | ≤ 16 |
| CSC[C@@H](CCNC(=N)N)NCc1ccc(-n2cc3cc(-c4cc(CCC[C@H](C)N)cc(Cl)c4F)[nH]c3nc2=O)cc1 [Compound 24] | ≤ 16 | ≤ 16 |
| C[C@H](N)CCCc1cc(Cl)c(F)c(-c2cc3cn(-c4ccc(C(=O)N[C@@H](CN)CCNC(=N)N)cc4)c(=O)nc3[nH]2)c1 [Compound 25] | ≤ 16 | ≤ 16 |
| C[C@H](N)CCCc1cc(Cl)c(F)c(-c2cc3cn(-c4ccc(C(=O)N[C@H](CCNC(=N)N)CNc5ncc[nH]5)cc4)c(=O)nc3[nH]2)c1 [Compound 15] | ≤ 16 | ≤ 16 |
| C=C[C@@H](CCNC(=N)N)NC(=O)c1ccc(-n2cc3cc(-c4cc(CCC[C@H](C)N)cc(Cl)c4F)[nH]c3nc2=O)cc1 [Compound 20] | ≤ 16 | ≤ 16 |
| C[C@H](N)CCCc1cc(Cl)c(F)c(-c2cc3cn(-c4ccc([C@@H]5CNC[C@@H](CCNC(=N)N)N5)cc4)c(=O)nc3[nH]2)c1 [Compound 23] | ≤ 16 | ≤ 16 |
| C[C@H](N)CCCc1cc(Cl)c(F)c(-c2cc3cn(-c4ccc(CN[C@@H](C)CCNC(=N)N)c(CC(=O)O)c4)c(=O)nc3[nH]2)c1 [Compound 1] | > 16 | ≤ 16 |
| C[C@H](N)CCCc1cc(Cl)c(F)c(-c2cc3cn(-c4ccc(CO[C@H](CCNC(=N)N)CNC(=N)N)c(F)c4)c(=O)nc3[nH]2)c1 [Compound 30] | ≤ 16 | ≤ 16 |
| CNC(=O)Cc1cc(-n2cc3cc(-c4cc(CCC[C@H](C)N)cc(Cl)c4F)[nH]c3nc2=O)ccc1CN[C@@H](C)CCNC(=N)N [Compound 2] | ≤ 16 | ≤ 16 |
| C[C@H](N)CCCc1cc(Cl)c(F)c(-c2cc3cn(-c4cc(F)c(CO[C@H](CCNC(=N)N)CNC(=N)N)c(F)c4)c(=O)nc3[nH]2)c1 [Compound 56] | ≤ 16 | ≤ 16 |
| COCCOCc1cc(-n2cc3cc(-c4cc(CCC[C@H](C)N)cc(Cl)c4F)[nH]c3nc2=O)ccc1CN[C@@H](C)CCNC(=N)N [Compound 12] | ≤ 16 | ≤ 16 |
| C[C@H](NCCCNC(=N)N)c1ccc(-n2cc3cc(-c4cc(CCC[C@@H](N)C(F)(F)F)cc(Cl)c4F)[nH]c3nc2=O)cc1 [Compound 26] | > 16 | ≤ 16 |
| C[C@H](N)CCCc1cc(Cl)c(F)c(-c2cc3cn(-c4ccc([C@@H](NCCCNC(=N)N)C(F)F)cc4)c(=O)nc3[nH]2)c1 [Compound 28] | ≤ 16 | ≤ 16 |
| N=C(N)NCC[C@@H]1CSC[C@@H](c2ccc(-n3cc4cc(-c5cc(CCC[C@@H](N)C6CC6)cc(Cl)c5F)[nH]c4nc3=O)cc2)N1 [Compound 29] | ≤ 16 | ≤ 16 |
| C[C@H](N)CCCc1cc(Cl)c(F)c(-c2cc3cn(-c4ccc(CN[C@@H](C)CCNC(=N)N)c(S(C)(=O)=O)c4)c(=O)nc3[nH]2)c1 [Compound 6] | ≤ 16 | ≤ 16 |
| C[C@H](N)CCCc1cc(Cl)c(F)c(-c2cc3cn(-c4ccc([C@@H](NCCCNC(=N)N)C(F)(F)F)cc4)c(=O)nc3[nH]2)c1 [Compound 27] | ≤ 16 | ≤ 16 |
